Assays:
Format in all cases: physicochemical
[1] = Density of polar solvents; conditions: ambient temperature
[2] = Solubility tests of hydrogenated quinones (QH) in solvent mixtures, synthetic EQ/ETQ working solutions; conditions: comparison in words
Method: The determination of the QH solubility was performed on synthetic EQ/ETQ working solutions. These quinones mixed in the tested solvents have been hydrogenated to a fixed level and cooled down successively to 3 different temperatures before the measurement (min. 3 hours to stabilize the system between each measurement). The conditions applied for these tests were:
In this figure, Kb stands for the weight partition coefficient of hydrogen peroxide between the water and the working solution (mixture of quinones and organic solvents). It is calculated using the following formula: Kb=(g H2O2/kg aqueous phase)/(g H2O2/kg organic phase)
The maximum solubility of a hydrogenated quinone (QH) in a solvent mixture is directly correlated with the productivity of the working solution. The higher is the QH solubility, the higher will be the theoretical quantity of hydrogen peroxide achievable per kg of WS (Productivity). These theoretical values, designated by the terms “Productivity (gH2O2/kg of WS) measured” in Table 1, were calculated as follows: […]
1 mole (240 g) ETQH (which actually is the QH in our Examples) per kg of WS will produce 1 mole (34 g) of H2O2 per kg of WS.

[3] = Stability of the nitrile solvent during the AO process; conditions: nitrile function not protected
Text: As explained above, the main feature of the invention is the recourse to a mixture of a polar organic solvent and a non-polar organic solvent wherein the polar organic solvent is a substituted cyclohexane carbonitrile. […] The substituent(s) are preferably alkyl groups, preferably methyl and/or ethyl group(s). […] Another alternative would be to use at least one propyl, diethyl, methyl isopropyl, butyl, t-butyle . . . the latter being preferred.

Molecule	Density of polar solvents at amb T° [1] [kg/L]	Productivity values compared with sextate or a linear nitrile like decanenitrile [2]	Stability of the molecule during the AO process [3]
CCCCCCCCCC#N [Decanenitrile]	0.83		
CC1CCCC(C)(C)C1C#N (centres unmarked) [TMCH-CN, 2,2,6-trimethyl-cyclohexane-carbonitrile]	0.89	much higher (almost the double in fact)	
N#CC1CCCCC1 [Unsubstituted cyclohexane carbonitrile, cyclohexane carbonitrile]			undergoes degradation
methyl cyclohexyl acetate [Sextate]	0.94		
